The subject of this assay is P388 leukemia ip, CD2F1 mice, survival T/C. As to the kind of experiment: NCI In Vivo Anticancer Drug Screen. Data for tumor model P388 Leukemia (intraperitoneal) in CD2F1 (CDF1) mice. As to conditions: endpoint: median survival time, higher = longer survival. The method, boiled down: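 Mice carrying the transplanted tumor received test compound or vehicle. Survival was recorded in each group, and the value is the treated-group measurement divided by that of the vehicle-treated control group.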

Where [1] appears, read: dose: 60.0 mg/kg/injection, schedule: Q01DX005 (ip), vehicle: saline with Tween-80.
Setting [2] is: dose: 120.0 mg/kg/injection, schedule: Q01DX005 (ip), vehicle: saline with Tween-80.
Where [3] appears, read: dose: 240.0 mg/kg/injection, schedule: Q01DX005 (ip), vehicle: saline with Tween-80.
[4] abbreviates: dose: 100.0 mg/kg/injection, schedule: Q04DX003 (ip), vehicle: Klucel (hydroxypropylcellulose) (HPC).
[5] abbreviates: dose: 200.0 mg/kg/injection, schedule: Q04DX003 (ip), vehicle: Klucel (hydroxypropylcellulose) (HPC).
The mark [6] stands for this setting: dose: 50.0 mg/kg/injection, schedule: Q01DX009 (ip), vehicle: saline.
Setting [7] is: dose: 100.0 mg/kg/injection, schedule: Q01DX009 (ip), vehicle: saline.
Where [8] appears, read: dose: 200.0 mg/kg/injection, schedule: Q01DX009 (ip), vehicle: saline.
Where [9] appears, read: dose: 50.0 mg/kg/injection, schedule: Q01DX005 (ip), vehicle: Klucel (hydroxypropylcellulose) (HPC).
Where [10] appears, read: dose: 100.0 mg/kg/injection, schedule: Q01DX005 (ip), vehicle: Klucel (hydroxypropylcellulose) (HPC).
The mark [11] stands for this setting: dose: 50.0 mg/kg/injection, schedule: Q01DX005 (ip), vehicle: saline with Tween-80.
Setting [12] is: dose: 100.0 mg/kg/injection, schedule: Q01DX005 (ip), vehicle: saline with Tween-80.
Where [13] appears, read: dose: 200.0 mg/kg/injection, schedule: Q01DX005 (ip), vehicle: saline with Tween-80.
[14] abbreviates: dose: 50.0 mg/kg/injection, schedule: Q01DX009 (ip), vehicle: Klucel (hydroxypropylcellulose) (HPC).
The mark [15] stands for this setting: dose: 100.0 mg/kg/injection, schedule: Q01DX009 (ip), vehicle: Klucel (hydroxypropylcellulose) (HPC).
The mark [16] stands for this setting: dose: 200.0 mg/kg/injection, schedule: Q01DX009 (ip), vehicle: Klucel (hydroxypropylcellulose) (HPC).
Setting [17] is: dose: 100.0 mg/kg/injection, schedule: Q04DX003 (ip), vehicle: saline with Tween-80.
Setting [18] is: dose: 200.0 mg/kg/injection, schedule: Q04DX003 (ip), vehicle: saline with Tween-80.
The mark [19] stands for this setting: dose: 400.0 mg/kg/injection, schedule: Q04DX003 (ip), vehicle: saline with Tween-80.

The structures appear in SMILES notation. Where “and” joins values, the source holds several entries; their conditions need not be identical. Equal entries are not always repeated. Inconclusive results and toxic doses are left out.

`Oc1ccc(Br)cc1C(c1ccc2c(c1)OCO2)N1CCOCC1` (configuration not stated): the T/C by setting is: under setting [1], 100 % of control; under setting [2], 101 % of control; under setting [3], 102 % of control.

On to `COC(=O)C1c2ccccc2C(C(=O)OC)C(C(=O)OC)C(C(=O)OC)c2ccccc21` (configuration not stated), for which the T/C was 102 % of control under setting [4]; 102 % of control under setting [5]; 99 % of control (dose: 400.0 mg/kg/injection, schedule: Q04DX003 (ip), vehicle: Klucel (hydroxypropylcellulose) (HPC)).

Take `N#CCS(=O)(=O)OCCCl`: the T/C (dose: 12.5 mg/kg/injection, schedule: Q01DX005 (ip), vehicle: saline with Tween-80) is 120 % of control and the T/C (dose: 37.5 mg/kg/injection, schedule: Q01DX005 (ip), vehicle: saline with Tween-80) is 151 % of control.

Take `COc1cccc2c1C(=O)c1c(O)c3c(c(O)c1C2=O)CC(O)(C(C)=O)CC3OC1CC(NCC2(O)OCC(O)C(O)C2O)C(O)C(C)O1` (configuration not stated): the T/C (dose: 3.13 mg/kg/injection, schedule: Q04DX003 (ip), vehicle: water) was 119 % of control; the T/C (dose: 6.25 mg/kg/injection, schedule: Q04DX003 (ip), vehicle: water) is 117 % of control; the T/C (dose: 12.5 mg/kg/injection, schedule: Q04DX003 (ip), vehicle: water) is 119 % of control; the T/C (dose: 25.0 mg/kg/injection, schedule: Q04DX003 (ip), vehicle: water) was 118 % of control; the T/C (dose: 200.0 mg/kg/injection, schedule: Q04DX003 (ip), vehicle: water) is 99 % of control.

As for `CCCCCCCCCC#CC(=O)OC`, the T/C reads like this: under setting [6], 105 % of control; under setting [7], 105 % of control; under setting [8], 105 % of control.

As for `CC1C(=O)OC2CC34C5CC(C(C)(C)C)C36C(OC(=O)C6O)OC4(C(=O)O5)C21O` (configuration not stated), the T/C is, setting by setting: under setting [9], 100 % of control; under setting [10], 100 % of control; (dose: 200.0 mg/kg/injection, schedule: Q01DX005 (ip), vehicle: Klucel (hydroxypropylcellulose) (HPC)) 92 % of control.

Regarding `CC1=CC2N(C=C1)C(c1ccc(Cl)cc1)=NON2c1cc(C)ccn1` (configuration not stated), the T/C is 92 % of control under setting [11]; 86 % of control and 94 % of control under setting [12]; 87 % of control under setting [2]; 100 % of control under setting [13]; 93 % of control under setting [3].

As for `Cc1cccc2c(/C=C/c3ccc(N(C)C)cc3)ccnc12`, the T/C (dose: 25.0 mg/kg/injection, schedule: Q01DX009 (ip), vehicle: Klucel (hydroxypropylcellulose) (HPC)) is 105 % of control; the T/C under setting [14] was 105 % of control and 117 % of control; the T/C under setting [15] is 117 % of control; the T/C under setting [16] is 106 % of control.

With `CCC(C)C(=O)OC1C(=O)OC2CC3C(C)=CC(=O)C(O)C3(C)C3C4(O)OCC23C1C(C)C4O` (configuration not stated), the T/C (dose: 2.0 mg/kg/injection, schedule: Q01DX009 (ip), vehicle: saline) is 96 % of control.

Consider `Cc1cc(-c2ccccc2)c2ccccc2c1N(CC(=O)O)S(=O)(=O)c1ccccc1`, for which the T/C under setting [17] is 100 % of control; the T/C (dose: 200.0 mg/kg/injection, schedule: Q01DX009 (ip), vehicle: saline with Tween-80) is 115 % of control; the T/C under setting [18] is 100 % of control; the T/C under setting [19] was 90 % of control.

With `CC1(C)NC(=O)N(Cc2ccccc2)C1=O`, the T/C was 102 % of control under setting [14]; 108 % of control under setting [6]; 101 % of control under setting [15]; 108 % of control under setting [7]; 102 % of control under setting [16]; 104 % of control under setting [8].

On to `Cc1cc(C)c(C#N)c(SCC(=O)c2sc3c(C#N)c(C)cc(C)[n+]3c2[O-])n1`, for which the T/C reads like this: under setting [11], 90 % of control; under setting [12], 90 % of control; under setting [13], 95 % of control.

As for `NC(=NC(=O)c1ccccc1)N(CCc1ccccc1)CCc1ccccc1`, the T/C runs as follows: under setting [1], 104 % of control; under setting [2], 100 % of control; under setting [3], 109 % of control.

Take `CCSc1ccc2c(cc1=O)C(N)CCc1cc(OC)c(OC)c(OC)c1-2` (configuration not stated): the T/C is 96 % of control under setting [14] and 121 % of control under setting [15].

As to `COC1=CC(=Nc2cc(Br)c(O)c(Br)c2)C=CC1=O`, the T/C reads like this: (dose: 6.25 mg/kg/injection, schedule: Q01DX005 (ip), vehicle: saline) 105 % of control; (dose: 12.5 mg/kg/injection, schedule: Q01DX005 (ip), vehicle: saline) 108 % of control; (dose: 25.0 mg/kg/injection, schedule: Q01DX005 (ip), vehicle: saline) 100 % of control; under setting [11], 95 % of control.

Turning to `Nc1nc(Nc2ccccc2)n[nH]1`, the T/C was 102 % of control under setting [14], 102 % of control under setting [15] and 94 % of control under setting [16].

Take `[Cl][Pt+2][Cl].[NH-]c1ccc(C(=O)O)cc1[NH-]`: the T/C reads like this: (dose: 6.25 mg/kg/injection, schedule: Q04DX002 (ip), vehicle: saline with Tween-80) 100 % of control; (dose: 12.5 mg/kg/injection, schedule: Q04DX002 (ip), vehicle: saline with Tween-80) 102 % of control; (dose: 25.0 mg/kg/injection, schedule: Q04DX002 (ip), vehicle: saline with Tween-80) 100 % of control; (dose: 50.0 mg/kg/injection, schedule: Q04DX002 (ip), vehicle: saline with Tween-80) 110 % of control; (dose: 100.0 mg/kg/injection, schedule: Q04DX002 (ip), vehicle: saline with Tween-80) 120 % of control.

With `NC(C(=O)O)C(CC(=O)O)c1ccncc1` (configuration not stated), the T/C runs as follows: under setting [17], 96 % of control; under setting [18], 89 % of control; under setting [19], 98 % of control.

As for `COC(=O)CCCOc1ccc(N(CCCl)CCCl)cc1`, the T/C is 194 % of control under setting [4] and 223 % of control under setting [5].

For the molecule `COC(=O)NC12CC3CC(C(C)O1)C2N(Cc1ccccc1)C3` (configuration not stated), the T/C (dose: 25.0 mg/kg/injection, schedule: Q01DX005 (ip), vehicle: Klucel (hydroxypropylcellulose) (HPC)) is 100 % of control; the T/C under setting [9] is 93 % of control; the T/C under setting [10] is 94 % of control.

Turning to `COc1ccc2cc1Oc1ccc(cc1)CC1c3cc(OC)c(OC)c(c3CCN1C)Oc1c(OC)c(OC)cc3c1[C@H](C2)NCC3` (some centres not stated), the T/C reads like this: (dose: 2.75 mg/kg/injection, schedule: Q01DX005 (ip), vehicle: Klucel (hydroxypropylcellulose) (HPC)) 90 % of control; (dose: 5.5 mg/kg/injection, schedule: Q01DX005 (ip), vehicle: Klucel (hydroxypropylcellulose) (HPC)) 99 % of control; (dose: 11.0 mg/kg/injection, schedule: Q01DX005 (ip), vehicle: Klucel (hydroxypropylcellulose) (HPC)) 99 % of control; (dose: 22.0 mg/kg/injection, schedule: Q01DX005 (ip), vehicle: Klucel (hydroxypropylcellulose) (HPC)) 94 % of control.

For the molecule `CC(=O)CC(=O)Nc1ccccc1`, the T/C runs as follows: (dose: 12.5 mg/kg/injection, schedule: Q01DX009 (ip), vehicle: saline) 105 % of control; (dose: 25.0 mg/kg/injection, schedule: Q01DX009 (ip), vehicle: saline) 94 % of control; under setting [6], 88 % of control.

Regarding `O=C1C(c2ccccc2)=C(c2ccccc2)/C1=C\c1ccc(Cl)cc1Cl`, the T/C was 87 % of control under setting [14] and 87 % of control under setting [15].

Turning to `O=[N+]([O-])c1ccc(-c2nnn(C3CC3)c2N2CCCCC2)cc1`, the T/C was 100 % of control (dose: 100.0 mg/kg/injection, schedule: Q04DX002 (ip), vehicle: Klucel (hydroxypropylcellulose) (HPC)); 96 % of control (dose: 200.0 mg/kg/injection, schedule: Q04DX002 (ip), vehicle: Klucel (hydroxypropylcellulose) (HPC)); 101 % of control (dose: 400.0 mg/kg/injection, schedule: Q04DX002 (ip), vehicle: Klucel (hydroxypropylcellulose) (HPC)).

Regarding `C=C1[C@@H](OC(C)=O)C[C@@H]2C[C@]3(C)C(OC(C)=O)CC(C)(C)[C@@H]3C12O` (some centres not stated), the T/C was 98 % of control (dose: 1.75 mg/kg/injection, schedule: Q01DX005 (ip), vehicle: saline); 100 % of control (dose: 3.5 mg/kg/injection, schedule: Q01DX005 (ip), vehicle: saline); 97 % of control (dose: 7.0 mg/kg/injection, schedule: Q01DX005 (ip), vehicle: saline).

These data come from PubChem BioAssay AID330 (DTP/NCI, 2004).
